{"source": "patent US20030219387A1", "about": "“Local delivery of agents for disruption and inhibition of bacterial biofilm for treatment of periodontal disease” (priority 2000, published 2003)", "origin": "cited, not measured here"}
{"smiles": "CC(=N)N1CC[C@H](Oc2ccc([C@H](Cc3ccc4ccc(C(=N)N)cc4c3)C(=O)O)cc2)C1", "note": "[DX-9065a]", "values": [{"measurement": "inhibition of gingipain", "setting": "gingipain", "result": "can inhibit gingipain"}, {"measurement": "reduction of P. gingivalis growth", "setting": "P. gingivalis", "result": "selectively reduces P. gingivalis growth"}]}
